Measured values from patent US20180311364A1, “Protease Triggered Release Of Molecules From Hydrogels” (The Trustees of the University of Pennsylvania, priority 2010, published 2018).

Test: Triggered release of ilomastat from HA-aldehyde / HA-peptide-hydrazide hydrogel
Format: physicochemical
Procedure: Ilomastat was ground into a fine powder of uniform microparticles. These microparticles were suspended in the dissolved HA-aldehyde and HA-peptide-hydrazide solutions at 10 μg per 100 μL of polymer solution. At this concentration ilomastat remains a solid particle within the polymer solution. HA-aldehyde and HA-peptide-hydrazide polymers were mixed 1:1 aldehdye:hydrazide to induce crosslinking into a solid gel. The gels were incubated in phosphate buffered saline at 37° C. After 14 days less than 10% of the ilomastat was released from the gels due to hydrophobic interactions of the ilomastat in the microparticles. The gels were then exposed to collagenase 200 U/mL and the gels degraded.

CNC(=O)[C@H](Cc1c[nH]c2ccccc12)NC(=O)[C@@H](CC(=O)NO)CC(C)C [ilomastat, Ilomastat]
ilomastat release after gel degradation (HPLC) (gels exposed to collagenase 200 U/mL after 14 days in PBS, gels degraded): solubilized in the larger volume of the buffer | ilomastat released from the gels (gels incubated in phosphate buffered saline at 37° C., after 14 days, ilomastat microparticles 10 μg per 100 μL polymer solution): less than 10%
